Like-named read-outs stand apart in the source and are kept apart here.
Tests used:
[1] = log P determination by HPLC on reversed-phase columns (EEC Directive 79/831 Annex V.A8); type: physicochemical; details: pH 2.7
Procedure, shortened: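 Calibration used unbranched alkan-2-ones of 3 to 16 carbons with known log P, values interpolated linearly from retention times between neighbouring standards. Acidic-range LC-MS run at pH 2.7, eluents aqueous and acetonitrile formic acid 0.1%, linear gradient 10% to 95% acetonitrile.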

[2] = tested on: caterpillars of the armyworm (Spodoptera frugiperda); test: Spodoptera frugiperda test (SPODFR spray treatment); type: in vivo; details: 168 h, read-out: activity in %
Procedure, shortened: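 Percent caterpillar mortality read 7 days after infestation (0% none killed, 100% all killed). Treatment was a spray of the acetone/DMF/emulsifier formulation, water-diluted to test concentration, onto Zea mays leaf discs, allowed to dry before larvae were added.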

[3] = tested on: larvae of the mustard beetle (Phaedon cochleariae); test: Phaedon test (PHAECO spray treatment); type: in vivo; details: 168 h, read-out: activity in %
Procedure, shortened: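 Mortality of mustard beetle larvae, expressed as percent killed (100% all, 0% none), assessed 7 days after spraying. Spray liquor made from compound in acetone plus dimethylformamide with alkylaryl polyglycol ether, diluted in emulsifier-containing water to the desired concentration.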

[4] = HPLC on reversed-phase columns (C 18), EEC Directive 79/831 Annex V.A8, read-out: logP

Row | Structure (SMILES) | chromatographic logP [1] | pest or weed control at 100 g/ha ([2]; 100 g/ha, after 7 days) [%] | pest or weed control at 100 g/ha ([3]; 100 g/ha, after 7 days) [%] | chromatographic logP [1, 4] | pest or weed control at 100 g/ha [2] [%] | pest or weed control at 100 g/ha [3] [%]
1 | CCNC(=O)c1cc(I)cc(C)c1NC(=O)c1cc(Cn2cc(C(F)(F)C(F)(F)F)nn2)nn1-c1ncccc1Cl [Example 311] | 3.49 | 100 | 100 | – | – | –
2 | Cc1cc(I)cc(C(=O)NC(C)C)c1NC(=O)c1cc(Cn2cc(C(F)(F)C(F)(F)C(F)(F)F)nn2)nn1-c1ncccc1Cl [Example 322] | – | – | – | 4.07 | 100 | 100
3 | Cc1cc(I)cc(C(=O)NC2CC2)c1NC(=O)c1cc(Cn2cc(C(F)(F)C(F)(F)C(F)(F)F)nn2)nn1-c1ncccc1Cl [Example 323] | – | – | – | 3.82 | 100 | 100
4 | Cc1cc(I)cc(C(=O)NCC2CC2)c1NC(=O)c1cc(Cn2cc(C(F)(F)C(F)(F)C(F)(F)F)nn2)nn1-c1ncccc1Cl [Example 333] | – | – | – | 4.13 | 100 | 100
5 | Cc1cc(I)cc(C(=O)NC(C)(C)C)c1NC(=O)c1cc(Cn2cc(C(F)(F)C(F)(F)C(F)(F)F)nn2)nn1-c1ncccc1Cl [Example 334] | – | – | – | 4.42 | 100 | 100
6 | CCNC(=O)c1cc(I)cc(C)c1NC(=O)c1cc(Cn2cc(C(F)(F)C(F)(F)C(F)(F)F)nn2)nn1-c1ncccc1Cl [Example 335] | – | – | – | 3.83 | 100 | 100
7 | Cc1cc(I)cc(C(=O)NC(C)C2CC2)c1NC(=O)c1cc(Cn2cc(C(F)(F)C(F)(F)C(F)(F)F)nn2)nn1-c1ncccc1Cl (stereo not drawn) [Example 336] | – | – | – | 4.36 | 100 | 100
8 | Cc1cc(I)cc(C(=O)NCC2CC2)c1NC(=O)c1cc(Cn2ncc(C(F)(F)C(F)(F)F)n2)nn1-c1ncccc1Cl [Example 345] | 4.22 | 100 | 100 | – | – | –
9 | Cc1cc(I)cc(C(=O)NC(C)C)c1NC(=O)c1cc(Cn2ncc(C(F)(F)C(F)(F)F)n2)nn1-c1ncccc1Cl [Example 346] | 4.15 | 100 | 100 | – | – | –
10 | Cc1cc(I)cc(C(=O)NC2CC2)c1NC(=O)c1cc(Cn2ncc(C(F)(F)C(F)(F)F)n2)nn1-c1ncccc1Cl [Example 347] | 3.86 | 100 | 100 | – | – | –
11 | Cc1cc(Cl)cc(C(=O)NC(C)C2CC2)c1NC(=O)c1cc(Cn2ncc(C(F)(F)C(F)(F)F)n2)nn1-c1ncccc1Cl (stereo not drawn) [Example 351] | 4.21 | 100 | 100 | – | – | –
12 | Cc1cc(I)cc(C(N)=O)c1NC(=O)c1cc(Cn2ncc(C(F)(F)C(F)(F)F)n2)nn1-c1ncccc1Cl [Example 354] | 3.33 | 100 | 100 | – | – | –
13 | CCNC(=O)c1cc(I)cc(C)c1NC(=O)c1cc(Cn2ncc(C(F)(F)C(F)(F)F)n2)nn1-c1ncccc1Cl [Example 355] | 3.89 | 100 | 100 | – | – | –
14 | Cc1cc(I)cc(C(=O)NC(C)C2CC2)c1NC(=O)c1cc(Cn2ncc(C(F)(F)C(F)(F)F)n2)nn1-c1ncccc1Cl (stereo not drawn) [Example 357] | 4.45 | 100 | 100 | – | – | –
15 | Cc1cc(Cl)cc(C(=O)NCC2CC2)c1NC(=O)c1cc(Cn2ncc(C(F)(F)C(F)(F)C(F)(F)F)n2)nn1-c1ncccc1Cl [Example 366] | – | – | – | 4.34 | 100 | 100
16 | CCNC(=O)c1cc(Cl)cc(C)c1NC(=O)c1cc(Cn2ncc(C(F)(F)C(F)(F)C(F)(F)F)n2)nn1-c1ncccc1Cl [Example 367] | – | – | – | 4.03 | 100 | 100
17 | CCNC(=O)c1cc(I)cc(C)c1NC(=O)c1cc(Cn2ncc(C(F)(F)C(F)(F)C(F)(F)F)n2)nn1-c1ncccc1Cl [Example 369] | – | – | – | 4.28 | 100 | 100
18 | Cc1cc(Cl)cc(C(=O)NC2CC2)c1NC(=O)c1cc(Cn2ncc(C(F)(F)C(F)(F)C(F)(F)F)n2)nn1-c1ncccc1Cl [Example 370] | – | – | – | 3.99 | 100 | 100
19 | Cc1cc(I)cc(C(=O)NC(C)C)c1NC(=O)c1cc(Cn2ncc(C(F)(F)C(F)(F)C(F)(F)F)n2)nn1-c1ncccc1Cl [Example 371] | – | – | – | 4.46 | 100 | 100

Row | Structure (SMILES) | chromatographic logP [1] | pest or weed control at 100 g/ha ([2]; 100 g/ha, after 7 days) [%] | pest or weed control at 100 g/ha ([3]; 100 g/ha, after 7 days) [%] | chromatographic logP [1, 4] | pest or weed control at 100 g/ha [2] [%] | pest or weed control at 100 g/ha [3] [%]
20 | Cc1cc(C#N)cc(C(=O)NC2CC2)c1NC(=O)c1cc(Cn2ncc(C(F)(F)C(F)(F)C(F)(F)F)n2)nn1-c1ncccc1Cl [Example 376] | – | – | – | 3.63 | 100 | 100
21 | CNC(=O)c1cc(I)cc(C)c1NC(=O)c1cc(Cn2ncc(C(F)(F)C(F)(F)C(F)(F)F)n2)nn1-c1ncccc1Cl [Example 377] | – | – | – | 4 | 100 | 100
22 | Cc1cc(Cl)cc(C(=O)NC(C)C)c1NC(=O)c1cc(Cn2ncc(C(F)(F)C(F)(F)C(F)(F)F)n2)nn1-c1ncccc1Cl [Example 378] | – | – | – | 4.27 | 100 | 100
23 | Cc1cc(Cl)cc(C(=O)NC(C)C2CC2)c1NC(=O)c1cc(Cn2ncc(C(F)(F)C(F)(F)C(F)(F)F)n2)nn1-c1ncccc1Cl (stereo not drawn) [Example 379] | – | – | – | 4.57 | 100 | 100
24 | Cc1cc(I)cc(C(=O)NCC2CC2)c1NC(=O)c1cc(Cn2ncc(C(F)(F)C(F)(F)C(F)(F)F)n2)nn1-c1ncccc1Cl [Example 382] | – | – | – | 4.59 | 100 | 100
25 | Cc1cc(I)cc(C(=O)NC(C)(C)C)c1NC(=O)c1cc(Cn2ncc(C(F)(F)C(F)(F)C(F)(F)F)n2)nn1-c1ncccc1Cl [Example 385] | – | – | – | 4.89 | 100 | 100
26 | Cc1cc(I)cc(C(=O)NC(C)C2CC2)c1NC(=O)c1cc(Cn2ncc(C(F)(F)C(F)(F)C(F)(F)F)n2)nn1-c1ncccc1Cl (stereo not drawn) [Example 386] | – | – | – | 4.82 | 100 | 100
27 | CSC[C@H](C)NC(=O)c1cc(I)cc(C)c1NC(=O)c1cc(Cn2nc(C(F)(F)F)c(C(F)(F)F)n2)nn1-c1ncccc1Cl [Example 388] | 4.64 | 100 | 100 | – | – | –
28 | CCNC(=O)c1cc(I)cc(C)c1NC(=O)c1cc(Cn2nc(C(F)(F)F)c(C(F)(F)F)n2)nn1-c1ncccc1Cl [Example 389] | 4.23 | 100 | 100 | – | – | –
29 | Cc1cc(I)cc(C(=O)NC2CC2)c1NC(=O)c1cc(Cn2nc(C(F)(F)F)c(C(F)(F)F)n2)nn1-c1ncccc1Cl [Example 390] | 4.19 | 100 | 100 | – | – | –
30 | Cc1cc(I)cc(C(=O)NC(C)C2CC2)c1NC(=O)c1cc(Cn2nc(C(F)(F)F)c(C(F)(F)F)n2)nn1-c1ncccc1Cl (stereo not drawn) [Example 391] | 4.76 | 100 | 100 | – | – | –
31 | CCNC(=O)c1cc(Cl)cc(C)c1NC(=O)c1cc(Cn2nc(C(F)(F)F)c(C(F)(F)F)n2)nn1-c1ncccc1Cl [Example 392] | 3.98 | 100 | 100 | – | – | –
32 | Cc1cc(Cl)cc(C(=O)NC2CC2)c1NC(=O)c1cc(Cn2nc(C(F)(F)F)c(C(F)(F)F)n2)nn1-c1ncccc1Cl [Example 394] | 3.96 | 100 | 100 | – | – | –
33 | Cc1cc(C#N)cc(C(=O)NCC2CC2)c1NC(=O)c1cc(Cn2nc(C(F)(F)F)c(C(F)(F)F)n2)nn1-c1ncccc1Cl [Example 395] | 3.89 | 100 | 100 | – | – | –
34 | CCNC(=O)c1cc(C#N)cc(C)c1NC(=O)c1cc(Cn2nc(C(F)(F)F)c(C(F)(F)F)n2)nn1-c1ncccc1Cl [Example 397] | 3.61 | 100 | 100 | – | – | –
35 | Cc1cc(C#N)cc(C(=O)NC(C)C)c1NC(=O)c1cc(Cn2nc(C(F)(F)F)c(C(F)(F)F)n2)nn1-c1ncccc1Cl [Example 398] | 3.84 | 100 | 100 | – | – | –
36 | Cc1cc(C#N)cc(C(=O)NC2CC2)c1NC(=O)c1cc(Cn2nc(C(F)(F)F)c(C(F)(F)F)n2)nn1-c1ncccc1Cl [Example 399] | 3.59 | 100 | 100 | – | – | –
37 | Cc1cc(I)cc(C(=O)NCC2CC2)c1NC(=O)c1cc(Cn2nc(C(F)(F)F)c(C(F)(F)F)n2)nn1-c1ncccc1Cl [Example 401] | 4.52 | 100 | 100 | – | – | –
38 | Cc1cc(I)cc(C(=O)NC(C)C)c1NC(=O)c1cc(Cn2nc(C(F)(F)F)c(C(F)(F)F)n2)nn1-c1ncccc1Cl [Example 403] | 4.47 | 100 | 100 | – | – | –
